{
  "source": "paper PMC9229894",
  "about": "“In Silico, In Vitro, and Pharmacokinetic Studies of UBMC-4, a Potential Novel Compound for Treating against Trypanosoma cruzi” (Pathogens, 2022)",
  "key": {"[1]": {"assay": "Cytotoxicity, MTT method, CaCo2", "assay_type": "cell-based", "conditions": "human, Caco-2, read-out: LC50 median lethal concentration CaCo2", "procedure": "(§1) Cytotoxicity of UBMC-4 was tested in HepG2, CaCo2, and huMDM cell lines according to the effect on cell growth determined by the MTT microenzimatic method, as described by others. Briefly, 2.0 × 10^4 U-937 and huMDM or 2.5 × 10^4 HepG2 and CaCo2 cells were dispensed in 200 µL into each well of a 96-well tissue culture plate containing the corresponding culture medium. Then, 100 µL/well of each compound at a concentration of […] were added and plates were incubated at 37 °C, 5% CO2. After 72 h of incubation, 20 μL of MTT (Sigma-Aldrich, St Louis, MO, USA) were added to each well and plates were incubated for 3 h at 37 °C, 5% CO2. […] The concentration of formazan was determined at 570 nm in a spectrophotometer (Varioskan Flash Multimode Reader, Thermo Scientific, Waltham, MA, USA). […] Cytotoxicity was determined according to the percentages of viability and cell growth inhibition obtained for each compound, bz, doxorubicin, or medium alone. Non-specific absorbance was corrected by subtracting the OD of the blank (culture medium). Percentages of mortality were calculated using equation, as follows: % mortality = 100 − [(O.D. of treated cells)/(O.D. of non-treated cells)] × 100. The half maximal effective concentration (EC50) was calculated by the linear regression model Probit using Graphpad Prism software."}, "[2]": {"assay": "Cytotoxicity, MTT method, HepG2", "assay_type": "cell-based", "conditions": "human, HepG2 cells, read-out: LC50 median lethal concentration HepG2", "procedure": "as §1"}, "[3]": {"assay": "Cytotoxicity, MTT method, huMDM", "assay_type": "cell-based", "conditions": "human, monocyte-derived macrophages (huMDM), read-out: LC50 median lethal concentration huMDM", "procedure": "as §1"}, "[4]": {"system": "intracellular forms of Tulahuen strain", "set-up": "method as in Araujo-Lima et al. 2018 [44]", "conditions": "ref Araujo-Lima et al. 2018 [44]; read-out: EC50 against intracellular forms of Tulahuen strain; cited from earlier work"}, "[5]": {"system": "T. cruzi Tulahuen strain amastigotes", "assay": "Trypanocidal activity in intracellular amastigotes (β-galactosidase, U937 macrophages)", "assay_type": "cell-based, Trypanosoma cruzi", "procedure": "To obtain intracellular amastigotes, 2.5 × 10^6 U937 differentiated macrophage cells were infected with T. cruzi epimastigotes (Tulahuen strain producing β-galactosidase, 24 h of growing) in a 5:1 parasite/cell ratio. To calculate EC50, 100 μL of UBMC-4 were added at four serial dilutions ([…]) to each well, and benznidazole (bz) was added at an initial concentration of 20 µg/mL and 6 serial 2-fold dilutions were used to determine its EC50 as a control of the effectiveness of the experiment, in addition to the control of the viability of the parasites (cells without drug treatment), from the blank of the culture medium (medium without cells), in duplicate. The cells were incubated for 72 h at 37 °C with 5% of CO2. All medium was removed and 100 µL of substrate for β-galactosidase diluted in PBS (chlorophenol β-d-galactopyranoside-CPRG network; Sigma-Aldrich, St Louis, MO, USA, at 100 mM and 0.1% Nonidet P-40) was added to each well and incubated at 37 °C for 3 h. The amount of chlorophenol red released was read at 570 nm in a spectrophotometer (Varioskan TM). Infected cells were used as negative control while infected cells treated with benznidazole were used as a positive control (trypanocidal activity) for the assay. RPMI-1640 medium was used as a negative control. Non-specific absorbance was corrected by subtracting the OD of the blank sample. Determinations were done in triplicate in at least two independent experiments.\nThe trypanocidal activity was determined based on the percentage of decrease of amastigotes determined using equation, as follows: % reduction of infection = 100 − (O.D. of treated infected cells)/(O.D. of non-treated infected cells) × 100. The half maximal effective concentration (EC50) was calculated by the linear regression model Probit using Graphpad Prism software."}, "T. cruzi trypomastigotes": {"system": "T. cruzi trypomastigotes", "assay": "Flow cytometry of apoptosis-like markers in trypomastigotes", "assay_type": "cell-based, Trypanosoma cruzi", "conditions": "10 µM", "procedure": "Apoptosis-like markers were analyzed by triple staining using 3,3′-dihexyloxacarbocyanine (DiOC6), propidium iodide (PI), and Hoechst from Thermo Fisher Scientific to determine the change of mitochondrial membrane potential (ΔΨm), cell membrane damage, and impairment of cell cycle, respectively. All readings were performed on a BD FACSCanto II 4/2/2 Sys IVD flow cytometer, and data obtained were analyzed using the FlowJo7.6.2 software. Differences between treatments were determined by a two-way ANOVA for multiple comparisons with 95% significance using GraphPad Prism 8. In all cases, 20 µL of parasites (5 × 10^6/mL) were stained per treatment with 300 µL of Hanks’ balanced saline solution (HBSS) and 10 µL of the staining mix containing […], 0.5 µL of 70 nM DiOC6, and 0.5 µL of 10 mg/mL Hoechst. Subsequently, parasites were incubated at room temperature for 15 min until reading.\nThe same markers mentioned above were used for T. cruzi trypomastigotes. A total of 1 × 10^6 trypomastigotes were centrifuged at 1800 RCF for 5 min to remove the culture medium. Parasites were cultured at […] in PBS or 10% FBS-supplemented DMEM with or without 10 µM UBMC-4, 10 µM chloroquine, and 10 µM UBMC-4/chloroquine for 2 h and 5 h. All experiments were compared to a culture setup using bz as control compound. Three biological replicates and three experimental replicates were applied to data collected at each time point for experimental conduction of every portion of the study. In all cases, ANOVA was applied for multiple comparisons after determining that data were normal."}},
  "data": [
    {"smiles": "O=C(Cn1ccnc1[N+](=O)[O-])NCc1ccccc1", "note": "[Benznidazole, benznidazole, reference compound]", "values": [
      {"measurement": "CC50 at 72 h", "setting": "[1]", "value": "> 760000", "unit": "nM"},
      {"measurement": "CC50 at 72 h", "setting": "[2]", "value": "> 760000", "unit": "nM"},
      {"measurement": "CC50 at 72 h", "setting": "[3]", "value": "> 760000", "unit": "nM"},
      {"measurement": "EC50", "setting": "[4]", "value": "1800 ± 700", "unit": "nM"},
      {"measurement": "selectivity index (SI) between huMDM and T. cruzi amastigotes", "setting": "[5]; LC50 huMDM / EC50 amastigotes", "value": "> 655"},
      {"measurement": "EC50", "setting": "[5]; Trypanosoma cruzi, TULAHUEN, U-937, 72 h, read-out: EC50 half maximal effective concentration for T. cruzi amastigotes", "value": "1160 ± 30", "unit": "nM"}
    ]},
    {"smiles": "CCN(CC)CCCC(C)Nc1ccnc2cc(Cl)ccc12", "note": "(centres unmarked) [chloroquine, reference compound]", "values": [
      {"measurement": "mitochondrial membrane potential change", "setting": "T. cruzi trypomastigotes; normal nutrition conditions", "value": "no alteration in the mitochondrial membrane potential"},
      {"measurement": "mitochondrial membrane potential change", "setting": "T. cruzi trypomastigotes; nutritional stress conditions", "value": "hyperpolarization continued just as in the untreated controls"}
    ]}
  ]
}
